Our source for the EC50 and IC50 values is US20170007610A1, “NOVEL HETEROBICYCLIC COMPOUNDS AS KAPPA OPIOID AGONISTS” (priority 2014, published 2017).

Read-outs that look alike come from different tables or passages of the source.

In test [1] the target is T1, kappa opioid receptor (Homo sapiens, UniProt P41145).
T1 construct: grown in complete Ham's F-12 medium
The test is described as follows: Invitro KOR agonistic activity, cAMP based functional assay. It counts as cell-based.

For test [2], the target named is T2, kappa opioid receptor (Mus musculus, UniProt P33534).
T2 construct: from tissue; host or cells: mouse vas deferens (male Swiss Albino mice)
T2 sequence (P33534 whole entry): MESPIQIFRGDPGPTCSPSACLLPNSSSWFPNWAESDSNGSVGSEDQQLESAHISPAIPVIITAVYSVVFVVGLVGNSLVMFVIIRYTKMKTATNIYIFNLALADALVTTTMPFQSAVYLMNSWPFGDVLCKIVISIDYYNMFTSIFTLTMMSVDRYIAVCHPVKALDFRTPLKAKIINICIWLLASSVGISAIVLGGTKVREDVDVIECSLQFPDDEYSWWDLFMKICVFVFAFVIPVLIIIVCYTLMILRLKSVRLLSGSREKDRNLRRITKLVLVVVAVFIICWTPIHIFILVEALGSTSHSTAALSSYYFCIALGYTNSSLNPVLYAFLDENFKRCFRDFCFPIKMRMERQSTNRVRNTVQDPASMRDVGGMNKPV
The test is described as follows: Ex-vivo KOR agonistic activity, electrically stimulated mouse vas deferens (MVD) model. The procedure: a) Ex-Vivo KOR Agonistic Activity Testing, Using Electrically Stimulated Mouse Vas Deferens (MVD) Model:
Ex-vivo, the kappa opioid receptor agonistic activity of test compounds were tested on the electrically stimulated mouse vas deferens (MVD) preparations (Henderson et al., Br. J. Pharmacol., 46, 764-766, 1972; Portoghese et al., Life Sci. 36, 801-805, 1985) and IC50 were determined. In general, vas deferentia were taken from male Swiss Albino mice (30-40 g) and suspended in 8 ml organ baths, at 31° C., containing modified Krebs-Henseleit solution, without magnesium sulphate. Each vas deferens was equilibrated for 45 min at 2.6 mN tension and then stimulated at supramaximal voltage with five 1 ms pulses, at a frequency of 0.1 Hz. Concentration-response curves were determined by cumulative dosing. Inhibitory Concentration, 50% (IC50) values were determined by Sigmoidal dose-response (variable slope) equation, using Prizm v 6.01. The kappa opioid receptor specificity was determined by rightward shift in concentration-response curves in presence of 1 nM norbinaltorphimine (norBNI), a selective kappa opioid receptor antagonist.

The mark [3] stands for this setting: electrically stimulated mouse vas deferens preparation, cumulative dosing, read-out: Ex-vivo IC50.

T1 sequence (P41145 whole entry): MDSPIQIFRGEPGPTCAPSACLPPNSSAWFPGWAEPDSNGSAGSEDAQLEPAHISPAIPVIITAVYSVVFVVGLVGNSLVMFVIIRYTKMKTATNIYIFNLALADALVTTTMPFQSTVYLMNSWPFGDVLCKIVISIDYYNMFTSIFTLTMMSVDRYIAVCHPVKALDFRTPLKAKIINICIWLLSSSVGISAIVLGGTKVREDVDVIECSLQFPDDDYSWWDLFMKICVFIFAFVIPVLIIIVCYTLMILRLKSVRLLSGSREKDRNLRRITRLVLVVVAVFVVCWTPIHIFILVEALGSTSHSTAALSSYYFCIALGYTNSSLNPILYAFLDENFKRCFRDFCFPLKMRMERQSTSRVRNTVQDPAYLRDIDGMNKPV

In turn, `CN(C(=O)COc1ccc(NS(=O)(=O)CCl)c2ncccc12)[C@H](CN1CC[C@H](O)C1)c1ccccc1` [Compound 26] had an EC50 in test [1] of 0.012 nM. Further, the IC50 in test [2] stood at 29 nM.
Regarding `CN(C(=O)COc1ccc(NS(C)(=O)=O)c2ncccc12)[C@H](CN1CC[C@H](O)C1)c1ccccc1` [Compound 5, N-((S)-2-((S)-3-hydroxypyrrolidin-1-yl)-1-phenylethyl)-N-methyl-2-((8-methylsulfonamido)quinolin-5-yloxy)acetamide], in test [1], the EC50 was 0.013 nM. Moreover, the IC50 in test [2] turned out to be 5.6 nM.
The compound `CN(C(=O)COc1ccc2ccoc2c1)[C@H](CN1CC[C@H](O)C1)c1cccc([N+](=O)[O-])c1` [Compound 55, 2-(benzofuran-6-yloxy)-N-((S)-2-((S)-3-hydroxypyrrolidin-1-yl)-1-(3-nitrophenyl)ethyl)-N-methylacetamide] came in with an EC50 in test [1] of 1.92 nM. The IC50 in test [2] is 307 nM.
`CNS(=O)(=O)Nc1ccc(OCC(=O)N(C)[C@H](CN2CC[C@H](O)C2)c2ccccc2)c2cccnc12` [Compound 23, N-((S)-2-((S)-3-hydroxypyrrolidin-1-yl)-1-phenylethyl)-N-methyl-2-((8-((N-methylsulfamoyl)amino)quinolin-5-yl)oxy)-acetamide] returned an EC50 in test [1] of 0.017 nM. The compound further came in with an IC50 in test [2] of 8.4 nM.
`CN(C(=O)COc1ccc(NC(=O)CO)c2ncccc12)[C@H](CN1CC[C@H](O)C1)c1ccccc1` [Compound 34, 2-((8-(2-hydroxyacetamido)quinolin-5-yl)oxy)-N-((S)-2-((S)-3-hydroxypyrrolidin-1-yl)-1-phenylethyl)-N-methylacetamide]: the EC50 in test [1] was determined as 0.49 nM. The compound further came in with an IC50 in test [2] of 258 nM.
For `CC(=O)Nc1cccc([C@@H](CN2CC[C@H](O)C2)N(C)C(=O)COc2ccc(NS(C)(=O)=O)c3ncccc23)c1` [Compound 45, N-((S)-1-(3-acetamidophenyl)-2-((S)-3-hydroxypyrrolidin-1-yl)ethyl)-N-methyl-2-((8-(methylsulfonamido)quinolin-5-yl)oxy) acetamide], in that order: 0.066 nM and 14 nM.
For `CN(C(=O)COc1ccc2ncccc2c1)[C@H](CN1CC[C@H](O)C1)c1ccccc1` [Compound 19, N-((S)-2-((S)-3-hydroxypyrrolidin-1-yl)-1-phenylethyl)-N-methyl-2-(quinolin-6-yloxy)acetamide], in that order: 1.31 nM and 135 nM.
For `CN(C(=O)COc1ccc(NS(C)(=O)=O)c2ncccc12)[C@H](CN1CC[C@H](O)C1)c1cccc([N+](=O)[O-])c1` [Compound 42, N-((S)-2-((S)-3-hydroxypyrrolidin-1-yl)-1-(3-nitrophenyl)ethyl)-N-methyl-2-((8-(methylsulfonamido)quinolin-5-yl)oxy) acetamide], in that order: 0.044 nM and 50 nM.
In the case of `CN(C(=O)COc1ccc(NCCO)c2ncccc12)[C@H](CN1CC[C@H](O)C1)c1ccccc1` [Compound 41], the midpoint of the response in test [1], the EC50, lay at 1.32 nM. The compound further displayed an IC50 in test [2] of 254 nM.
Turning to “N-((S)-2-((S)-3-hydroxypyrrolidin-1-yl)-1-phenylethyl)- N-methyl-2-((8-(pyrrolidine-1-sulfonamido)-1,2,3,4- tetrahydroquinolin-5-yloxy)acetamide [Compound 39]”, in test [1] (cAMP direct ELISA, forskolin 20 μM, agonist 20 minutes, read-out: In-vitro EC50), the EC50 was found to be 0.088 nM. For the same compound, the IC50 in test [2] (setting [3]) worked out at 0.95 nM.
In the case of `CN1CCCc2cccc(OCC(=O)N(C)[C@H](CN3CC[C@H](O)C3)c3ccccc3)c21` [Compound 13, N-((S)-2-((S)-3-hydroxypyrrolidin-1-yl)-1-phenylethyl)-N-methyl-2-((1-methyl-1,2,3,4-tetrahydroquinolin-8-yl)oxy)acetamide], the EC50 in test [1] turned out to be 0.91 nM. In test [2], this compound displayed an IC50 of 125 nM.
`Cc1cccc([C@@H](CN2CC[C@H](O)C2)N(C)C(=O)COc2ccc(NS(C)(=O)=O)c3ncccc23)c1` [Compound 54, N-((S)-2-((S)-3-hydroxypyrrolidin-1-yl)-1-(3-methyl)ethyl)-N-methyl-2-((8-(methylsulfonamido)quinolin-5-yl)oxy)acetamide]: it took 0.098 nM to reach a half-maximal effect in test [1] (EC50). Moreover, the IC50 in test [2] was found to be 14 nM.
On to `CN(C(=O)COc1ccc2c3c1CCCN3S(=O)(=O)N2)[C@H](CN1CC[C@H](O)C1)c1ccccc1` [Compound 30], for which the EC50 in test [1] is 900 nM. The IC50 in test [2] (setting [3]) was 9400 nM.
For `CN(C(=O)COc1cccc2c1NCC2)[C@H](CN1CC[C@H](O)C1)c1ccccc1` [Compound 29, N-((S)-2-((S)-3-hydroxypyrrolidin-1-yl-)-1-phenylethyl)-2-(indolin-7-yloxy)-N-methylacetamide], a half-maximal response in test [1] (EC50) required 0.11 nM. In test [2], this compound showed an IC50 of 147 nM.
The corresponding values for `CN(C(=O)COc1cccc2c1N(S(C)(=O)=O)CCC2)[C@H](CN1CC[C@H](O)C1)c1ccccc1` [Compound 12, N-((S)-2-((S)-3-hydroxypyrrolidin-1-yl)-1-phenylethyl)-N-methyl-2-((1-(methylsulfonyl)-1,2,3,4-tetrahydroquinolin-8-yl)oxy)acetamide] are 0.005 nM and 2 nM.
The corresponding values for `CN(C(=O)COc1ccc([N+](=O)[O-])c2c1NCCC2)[C@H](CN1CC[C@H](O)C1)c1ccccc1` [Compound 8, N-((S)-2-((S)-3-hydroxypyrrolidin-1-yl)-1-phenylethyl)-N-methyl-2-((5-nitroquinolin-1,2,3,4-tetrahydroquinolin-8-yl)oxy)acetamide] are 0.018 nM and 6.2 nM.
As for `CC(=O)N1CCCc2c(OCC(=O)N(C)[C@H](CN3CC[C@H](O)C3)c3ccccc3)ccc(NS(C)(=O)=O)c21` [Compound 31, 2-((l-acetyl-8-(methylsulfonamido)-1,2,3,4-tetrahydroquinolin-5-yl)oxy)-N-((S)-2-((S)-3-hydroxypyrrolidin-1-yl)-1-phenylethyl)-N-methylacetamide], the EC50 in test [1] was found to be 0.51 nM. In test [2], this compound gave an IC50 of 118 nM.
The corresponding values for `CCN(CC)S(=O)(=O)Nc1ccc(OCC(=O)N(C)[C@H](CN2CC[C@H](O)C2)c2ccccc2)c2cccnc12` [Compound 25, 2-((8-((N,N-diethylsulfamoyl)amino)quinolin-5-yl)oxy)-N-((S)-2-((S)-3-hydroxypyrrolidin-1-yl)-1-phenylethyl)-N-methyl-acetamide] are 0.003 nM and 8.1 nM.
For `CN(C(=O)COc1ccc(NS(C)(=O)=O)c2ncccc12)[C@H](CN1CC[C@H](O)C1)c1cccc(F)c1` [Compound 52, N-((S)-1-(3-fluorophenyl)-2-((S)-3-hydroxypyrrolidin-1-yl)ethyl)-N-methyl-2-((8-(methylsulfonamido)quinolin-5-yl)oxy) acetamide], in that order: 0.18 nM and 21 nM.
The corresponding values for `CN(C(=O)COc1ccc2occc2c1)[C@H](CN1CC[C@H](O)C1)c1ccccc1` [Compound 16] are 0.04 nM and 4 nM.
In test [1], `CN(C(=O)COc1ccc2c(c1)CCCN2)[C@H](CN1CC[C@H](O)C1)c1ccccc1` [Compound 21, N-((S)-2-((S)-3-hydroxypyrrolidin-1-yl)-1-phenylethyl)-N-methyl-2-((1,2,3,4-tetrahydroquinolin-6-yl)oxy)acetamide] registered an EC50 of 1.23 nM. Also, the IC50 in test [2] was found to be 570 nM.
